Active and inactive are the calls of the source. No cut-off for these calls is given here.
Columns and labels:
A549 = test: cells; conditions: Homo sapiens, A549, 72 h
Description: Cytotoxicity against human A549 cells after 72 hrs by MTT assay

MDA-MB-231 [1] = test: Antitumor activity against human MDA-MB-231 cells xenografted in athymic nude mouse assessed as tumor growth inhibition at 10 mg/kg, iv dosed every 3 day for 15 consecutive days; assay type: functional; conditions: MDA-MB-231, 72 h, read-out: TGI
SW480 = test: cells; conditions: Homo sapiens, SW480, 72 h
Description: Cytotoxicity against human SW480 cells after 72 hrs by MTT assay

[2] = Safety index, ratio of IC50 for 17-AAG to IC50 for test compound against human HL7702 cells after 72 hrs by MTT assay; assay type: cell-based, L02; conditions: read-out: Ratio IC50
HepG2 = test: cells; conditions: Homo sapiens, HepG2, 72 h
Description: Cytotoxicity against human HepG2 cells after 72 hrs by MTT assay

A-431 = test: cells; conditions: Homo sapiens, A-431, 72 h
Description: Cytotoxicity against human A431 cells after 72 hrs by MTT assay

[3] = molecular target: T1, Heat shock protein HSP90 (Homo sapiens) (UniProt P07900+P08238); test: Inhibition Hsp90 in human MDA-MB 231 cells assessed as reduction in CDK4 protein level at 0.5 and 5 uM incubated for 24 hrs by Western blot method; assay type: cell-based
[4] = molecular target: T1, Heat shock protein HSP90 (Homo sapiens); test: Inhibition Hsp90 in human MDA-MB 231 cells assessed as reduction in AKT protein level at 0.5 and 5 uM incubated for 24 hrs by Western blot method; assay type: cell-based
Mus musculus [5] = test: Hepatotoxicity in Kunming mouse assessed as serum aspartate aminotransferase level at 10 mg/kg, iv (reference value: 197.2 +/- 11.2 U/L); assay type: toxicity, organism-based; design: dose 10 mg/kg, route intravenous; conditions: in vivo
[6] = Safety index, ratio of IC50 for GA to IC50 for test compound against HUVEC cells after 72 hrs by MTT assay; assay type: cell-based; conditions: human, read-out: Ratio IC50
[7] = molecular target: Heat shock protein HSP 90-alpha (Homo sapiens, UniProt P07900); test: Inhibition of GA-FITC binding to human recombinant Hsp90alpha incubated for 5 hrs by fluorescence polarization assay
HeLa = test: cells; conditions: Homo sapiens, 72 h
Description: Cytotoxicity against human HeLa cells after 72 hrs by MTT assay

[8] = molecular target: T1, Heat shock protein HSP90 (Homo sapiens); test: Inhibition Hsp90 in human MDA-MB 231 cells assessed as reduction in HER2 protein level at 0.5 and 5 uM incubated for 24 hrs by Western blot method; assay type: cell-based
cells [9] = conditions: Homo sapiens, BGC-823, 72 h
Description: Cytotoxicity against human BGC823 cells after 72 hrs by MTT assay

[10] = Safety index, ratio of IC50 for GA to IC50 for test compound against human HL7702 cells after 72 hrs by MTT assay; assay type: ADME, cell-based, L02; conditions: read-out: Ratio IC50
HUVEC = test: cells; conditions: Homo sapiens, 72 h
Description: Cytotoxicity against HUVEC cells after 72 hrs by MTT assay

MDA-MB-231 [11] = test: Antitumor activity against human MDA-MB-231 cells xenografted in athymic nude mouse assessed as reduction in tumor weight at 10 mg/kg, iv dosed every 3 day for 15 consecutive days; assay type: functional
Mus musculus [12] = test: Hepatotoxicity in Kunming mouse assessed as serum alanine aminotransferase level at 10 mg/kg, iv (reference value: 60.7 +/- 6.9U/L); assay type: toxicity, organism-based; design: dose 10 mg/kg, route intravenous; conditions: in vivo
MDA-MB-231 [13] = test: cells; conditions: Homo sapiens, MDA-MB-231, 72 h
Description: Cytotoxicity against human MDA-MB-231 cells after 72 hrs by MTT assay

[14] = molecular target: T1, Heat shock protein HSP90 (Homo sapiens); test: Inhibition Hsp90 in human MDA-MB 231 cells assessed as reduction in EGFR protein level at 0.5 and 5 uM incubated for 24 hrs by Western blot method; assay type: cell-based
[15] = Safety index, ratio of IC50 for 17-AAG to IC50 for test compound against HUVEC cells after 72 hrs by MTT assay; assay type: ADME, cell-based; conditions: human, read-out: Ratio IC50
cells [16] = conditions: Homo sapiens, L02, 72 h
Description: Cytotoxicity against human HL7702 cells after 72 hrs by MTT assay

COc1cc(/C=C/C(=O)NCCCCCCNC2=C3C[C@@H](C)C[C@H](OC)[C@H](O)[C@@H](C)/C=C(\C)[C@H](OC(N)=O)[C@@H](OC)/C=C\C=C(/C)C(=O)NC(=CC2=O)C3=O)cc(OC)c1OC
IC50 (A549): 278 nM
inhibition in vivo at 10 mg/kg (MDA-MB-231 [1]): 81%
IC50 (SW480): 796 nM
selectivity ratio at 72 h [2]: 50
IC50 (HepG2): 562 nM
IC50 (A-431): 773 nM
inhibition [3]: Active
inhibition [4]: Active
Activity (Mus musculus [5]): 181 U/L
selectivity ratio at 72 h [6]: 68
IC50 [7]: 290 nM
IC50 (HeLa): 284 nM
inhibition [8]: Active
IC50 (cells [9]): 527 nM
selectivity ratio at 72 h [10]: 35
IC50 (HUVEC): 1350 nM
T/C (MDA-MB-231 [11]): 21%
Activity (Mus musculus [12]): 40.4 U/L
IC50 (MDA-MB-231 [13]): 190 nM
inhibition [14]: Active
selectivity ratio at 72 h [15]: 5
IC50 (cells [16]): 4950 nM

From ChEMBL document CHEMBL3352031, “Discovery of diamine-linked 17-aroylamido-17-demethoxygeldanamycins as potent Hsp90 inhibitors” (Eur J Med Chem, 2014)
